Columns and labels:
CLL cells on L4.5 stroma = experiment: Apoptosis of CLL cells co-incubated on CD154+ L4.5 stroma; assay type: cell-based, human; details: for sensitivity of stroma co-incubated CLL cells: co-incubation on stroma for 24 h
Method: (§1) CLL cells were obtained from consented patients at the Norris Cotton Cancer Center. Cells were purified by centrifugation in Ficoll-Paque PLUS from 10 ml, of blood. Lymphocytes were plated in RPMI 1640 plus 10% serum at 1×10^6 cells/mL after three washes in PBS+2 mmol/L EDTA. Cells were either incubated immediately with reagents or after 24 h incubation with confluent layers of CD154+ stromal cells (L 4.5) at a ratio of 5:1.
(§2) Cells were incubated for 10 min with 2 μg/mL. Hoechst 33342 at 37° C. and visualized with a fluorescent microscope. At least 200 cells were scored for each sample. The percentage of cells with condensed chromatin was recorded.
The experiments above have shown that CLL cells are usually very sensitive to EX2. However, these cells were isolated from peripheral blood, and the real problem to curing CLL is to be able to kill cells that reside in the lymph node or […] marrow niche. To mimic this niche, we have used L4.5 cells that express CD154. […] However, when ABT-199 and EX2 were combined, marked apoptosis was again observed. For example, 100 nM ABT-199 alone induced about 10% apoptosis, whereas when combined with 1 μM EX2, >60% apoptosis was observed within 6 h. The combination of 1 μM EX2 and 1 μM ABT-199 induced about 80% apoptosis. This patient's cells appeared to be more resistant than those summarized in FIG. 2 which may therefore understate the impact of this combination. In cells from another patient that were more sensitive to EX2 alone we observed greater sensitization to ABT-199; these cells were not tested on stroma.

[1] = system: normal peripheral lymphocytes; experiment: Toxicity to normal peripheral lymphocytes (PARP cleavage, chromatin condensation, pJNK, Noxa); assay type: cell-based, human
Method: as §2
(§3) Cells were lysed in urea sample buffer [4 mol/L urea, 10% β-mercaptoethanol, 6% SDS, […] (pH 6.8), 0.01% bromphenol blue, and protease/phosphatase inhibitor cocktail] and boiled for 5 min. Proteins were subsequently separated by SDS-PAGE (10 or 15%) and transferred to polyvinylidene difluoride membrane (Millipore). Membranes were blocked with 5% nonfat milk in TBS and 0.05% Tween 20, and were probed with the appropriate primary antibody overnight. Subsequently, membranes were washed in […] and 0.05% Tween 20, and then incubated with secondary antibody conjugated to horseradish peroxidase. Proteins were visualized by enhanced chemiluminescence (Amersham). Actin was used as a loading control in Western blots.
To test the potential toxicity of EX2, normal peripheral lymphocytes were isolated from a healthy volunteer and incubated with EX2 alone or in combination with ABT-199.

CLL cells [2] = experiment: Immunoblot of PARP cleavage, pJNK and Noxa in CLL cells; assay type: cell-based, human
Method: as §1, §3
(§4) To determine whether EX2 induces apoptosis, freshly isolated CLL cells were incubated in media containing 0-1 μM EX2. Chromatin condensation was scored as a classic marker of apoptosis. Apoptosis was observed following incubation of cells with 10-100 nM EX2 and this also correlated with the cleavage of PARP (FIG. 1). Protein lysates were also assessed for both pJNK and NOXA, both of which were increased by the same concentrations of EX2.

Jeko-1 cells = experiment: Kinetics of apoptosis in Jeko-1 cells (Western blot); assay type: cell-based; details: Jeko-1 cells (FIG. 7)
Method: as §3
It was noted that in many of these experiments, PARP cleavage was incomplete at 6 h. To determine whether greater apoptosis occurred at later time points, we incubated cells for up to 24 h with EX2 (FIG. 6).

CLL cells [3] = experiment: Chromatin condensation (Hoechst 33342) apoptosis in freshly isolated CLL cells; assay type: cell-based, human; details: 6 h
Method: as §1, §2, §4

CC1(C)CCC(CN2CCN(c3ccc(C(=O)NS(=O)(=O)c4ccc(NCC5CCOCC5)c([N+](=O)[O-])c4)c(Oc4cnc5[nH]ccc5c4)c3)CC2)=C(c2ccc(Cl)cc2)C1 [ABT-199, reference compound]
apoptosis, 100 nM alone (CLL cells on L4.5 stroma; CLL cells on stroma, 100 nM ABT-199 alone): about 10%
sensitivity of stroma co-incubated CLL cells (CLL cells on L4.5 stroma): marked resistance
PARP cleavage in normal lymphocytes ([1]; healthy volunteer cells, ABT-199 alone): slight PARP cleavage
chromatin condensation in normal lymphocytes ([1]; healthy volunteer cells, ABT-199 with or without EX2): no chromatin condensation was observed

COc1cc(C(=O)c2c(C)oc3c(OP(=O)([O-])[O-])c(OC)ccc23)cc(OC)c1OC.[Na+].[Na+] [EX2, Disodium 6-methoxy-2-methyl-3-(3,4,5-trimethoxybenzoyl)benzofuran-7-yl phosphate]
apoptosis, single agent at 1 μM (CLL cells on L4.5 stroma; CLL cells co-cultured on L4.5 stroma 24 h, 1 μM): no apoptosis observed
apoptosis, combination of 1 μM EX2 and 1 μM ABT-199 (CLL cells on L4.5 stroma; CLL cells on stroma): about 80%
apoptosis, 1 μM EX2 combined with 100 nM ABT-199 (CLL cells on L4.5 stroma; CLL cells on stroma, within 6 h): > 60%
sensitivity of stroma co-incubated CLL cells (CLL cells on L4.5 stroma): markedly resistant
time to activation of JNK (CLL cells [2]; CLL cells): less than one
PARP cleavage over time (CLL cells [2]; CLL cells incubated up to 24 h (FIG. 6), by 24 h): almost total cleavage of PARP
PARP cleavage in presence of JNK inhibitor VIII (CLL cells [2]; CLL cells, 0-1 μM EX2 with JNK inhibitor VIII): completely prevented
lowest concentration at which apoptosis began to appear (CLL cells [2]; CLL cells, 6 h, FIG. 2A, pJNK and Noxa correlated): 5 nM
JNK activation and PARP cleavage after 1 h pulse treatment (CLL cells [2]; CLL cells, five hours after removing EX2, versus continuous incubation): still observed albeit slightly less
pJNK and NOXA levels (CLL cells [2]; protein lysates of CLL cells, same concentrations (10-100 nM)): increased
time by which apoptosis was complete (Jeko-1 cells): up to 24 h
concentration at which apoptosis (chromatin condensation) was observed (CLL cells [3]; freshly isolated CLL cells, 0-1 μM, correlated with PARP cleavage): 10 to 100 nM
relative potency as inducer of apoptosis (CLL cells [3]; versus vinblastine and combretastatin A4, chromatin condensation and PARP cleavage): more potent inducer of apoptosis
effect of EX2 on ABT-199-induced PARP cleavage in normal lymphocytes ([1]; EX2 combined with ABT-199): not increased
effect of EX2 on dinaciclib-induced apoptosis in normal leukocytes ([1]; EX2 combined with dinaciclib): not increased
Noxa induction in normal lymphocytes ([1]; healthy volunteer cells): no Noxa was induced
pJNK in normal lymphocytes ([1]; healthy volunteer cells): activated
PARP cleavage or chromatin condensation in normal lymphocytes ([1]; healthy volunteer cells, single agent, 6 h): no significant PARP cleavage or chromatin condensation

CCc1cnn2c(NCc3ccc[n+]([O-])c3)cc(N3CCCC[C@H]3CCO)nc12 [Dinaciclib, reference compound]
apoptosis in normal leukocytes ([1]; healthy volunteer cells, dinaciclib alone): induced some apoptosis

Reference: patent US9987293B2, “Method for treating chronic lymphocytic leukemia” (BIONOMICS LIMITED, priority 2014, dated 2018)
